Results as given in patent publication US20200031866A1, “PEPTIDE INHIBITORS OF SODIUM CHANNELS” (SPYRYX BIOSCIENCES, INC., priority 2016, published 2020).
Square brackets hold non-standard residues; d marks the D form. Peptide text beside a SMILES is read from it.

Columns and labels:
[1] = target: T1, alpha-ENaC (Homo sapiens, UniProt P37088); experiment: Internalization of alpha-ENaC in HEK293T cells, GFP-tagged alpha-ENaC co-expressed only with gamma ENaC and no beta-ENaC; type: cell-based; details: FIG. 6
T1 construct: expressed in transfected cells; host or cells: HEK293T
T1 sequence (P37088 1-669): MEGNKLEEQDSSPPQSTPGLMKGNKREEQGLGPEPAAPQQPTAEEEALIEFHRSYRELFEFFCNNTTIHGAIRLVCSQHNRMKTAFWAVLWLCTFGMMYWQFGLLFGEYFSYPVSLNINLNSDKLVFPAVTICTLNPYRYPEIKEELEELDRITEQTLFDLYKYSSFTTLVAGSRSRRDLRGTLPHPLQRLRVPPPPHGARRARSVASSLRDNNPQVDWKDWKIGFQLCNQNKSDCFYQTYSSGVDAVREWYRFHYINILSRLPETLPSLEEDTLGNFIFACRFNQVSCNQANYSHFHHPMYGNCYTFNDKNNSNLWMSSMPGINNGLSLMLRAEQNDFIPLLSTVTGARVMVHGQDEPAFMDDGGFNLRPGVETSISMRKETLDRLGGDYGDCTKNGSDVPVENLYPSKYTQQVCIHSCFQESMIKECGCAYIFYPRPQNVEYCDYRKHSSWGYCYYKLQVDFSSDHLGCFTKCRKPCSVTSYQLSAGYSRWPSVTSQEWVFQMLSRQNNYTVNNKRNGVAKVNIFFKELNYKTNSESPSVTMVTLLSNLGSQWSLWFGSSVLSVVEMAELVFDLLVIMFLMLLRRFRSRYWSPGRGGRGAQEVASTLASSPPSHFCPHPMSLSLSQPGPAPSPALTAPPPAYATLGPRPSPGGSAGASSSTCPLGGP
Procedure: […] Am J Physiol Lung Cell Mol Physiol. 2013 December; 305(12):L990-L1001. doi: 10.1152/ajplung.00103.2013. Epub 2013 October; Garland et al. Proc Natl Acad Sci USA. 2013 Oct. 1; 110(40):15973-8. doi: 10.1073/pnas.1311999110. Epub 2013 Sep. 16.; Tan et al. J Physiol. 2014 Dec. 1; 592(Pt 23):5251-68). Twenty-four hours later, peptide or vehicle control were added at t=0 and fluorescence was read using a Tecan M1000 plate reader 3 h later. Fluorescence was read at 488 nm (excitation)/510 nm (emission).

[2] = target: T2, epithelial sodium channels (Homo sapiens, UniProt P37088+P51168+P51170); experiment: Airway surface liquid hyper absorption in human bronchial epithelial cultures from CF patients; type: cell-based
T2 construct: human bronchial epithelial cultures from CF patients; endogenous in cells; host or cells: human bronchial epithelial cultures from CF patients
T2 sequence (P37088 1-669): T1 sequence (P37088 1-669)
T2 sequence (P51168 1-640): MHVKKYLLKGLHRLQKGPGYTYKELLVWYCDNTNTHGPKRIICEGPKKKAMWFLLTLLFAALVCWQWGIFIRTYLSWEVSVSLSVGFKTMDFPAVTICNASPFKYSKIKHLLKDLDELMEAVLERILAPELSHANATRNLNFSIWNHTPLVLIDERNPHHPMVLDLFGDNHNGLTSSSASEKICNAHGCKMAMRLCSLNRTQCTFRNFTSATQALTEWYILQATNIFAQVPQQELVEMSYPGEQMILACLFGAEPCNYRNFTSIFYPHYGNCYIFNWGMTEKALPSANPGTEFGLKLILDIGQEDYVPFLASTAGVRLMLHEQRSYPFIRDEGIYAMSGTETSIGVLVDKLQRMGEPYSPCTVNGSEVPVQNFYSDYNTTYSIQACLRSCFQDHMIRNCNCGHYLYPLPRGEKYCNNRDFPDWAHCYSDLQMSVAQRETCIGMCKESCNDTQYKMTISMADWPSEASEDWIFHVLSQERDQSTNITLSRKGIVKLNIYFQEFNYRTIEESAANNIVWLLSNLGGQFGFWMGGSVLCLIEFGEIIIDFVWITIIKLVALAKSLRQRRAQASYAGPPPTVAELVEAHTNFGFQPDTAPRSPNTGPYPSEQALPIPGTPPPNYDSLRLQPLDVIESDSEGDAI
T2 sequence (P51170 1-649): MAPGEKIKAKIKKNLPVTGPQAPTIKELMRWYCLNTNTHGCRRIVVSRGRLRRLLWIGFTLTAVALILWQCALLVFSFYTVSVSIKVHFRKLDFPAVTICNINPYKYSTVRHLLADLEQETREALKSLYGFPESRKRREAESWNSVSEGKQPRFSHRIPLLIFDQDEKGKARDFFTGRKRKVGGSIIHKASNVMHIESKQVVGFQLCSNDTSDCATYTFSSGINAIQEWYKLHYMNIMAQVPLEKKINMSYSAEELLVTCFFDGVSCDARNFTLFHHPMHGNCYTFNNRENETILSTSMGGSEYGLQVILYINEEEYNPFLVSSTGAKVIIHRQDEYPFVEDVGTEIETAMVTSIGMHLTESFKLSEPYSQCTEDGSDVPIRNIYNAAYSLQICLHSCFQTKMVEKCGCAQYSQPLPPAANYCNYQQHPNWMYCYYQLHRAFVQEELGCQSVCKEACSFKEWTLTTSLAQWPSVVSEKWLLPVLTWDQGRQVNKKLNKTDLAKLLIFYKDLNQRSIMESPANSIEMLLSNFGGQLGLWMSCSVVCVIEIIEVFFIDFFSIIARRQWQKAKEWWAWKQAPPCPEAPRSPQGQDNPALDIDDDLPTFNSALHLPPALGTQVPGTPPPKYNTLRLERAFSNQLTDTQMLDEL

SMILES: CC[C@H](C)[C@H](NC(=O)[C@@H]1CCCN1C(=O)[C@H](CC(C)C)NC(=O)[C@@H](C)NC(=O)[C@@H](C)N)C(=O)N1CCC[C@H]1C(=O)N[C@@H](CC(C)C)C(=O)N[C@@H](CC(=O)O)C(=O)N[C@@H](CCC(N)=O)C(=O)N[C@H](C(=O)N[C@H](C)C(=O)N[C@H](C)C(N)=O)[C@@H](C)O [SEQ ID NO:128, aaLPIPLDQTaa] (H-[dA][dA]LPIPLDQT[dA][dA]-NH2)
- effect on alpha-ENaC [1]: no effect
- duration of prevention of airway surface liquid hyper absorption following a single dose [2]: > 8 h
